Assay results from paper PMC9338973, “Rosmarinus officinalis L. hexane extract: phytochemical analysis, nanoencapsulation, and in silico, in vitro, and in vivo anti-photoaging potential evaluation” (Scientific Reports, 2022).
Values after ≈ are worked out from the molar mass of the structure shown. Values joined by “and” are separate entries in the source; they are usually repeats but may differ in a detail not shown here. Equal values may be shown once. One block for each molecule: values may come before it.

Columns and labels:
elastase enzyme = biological target: elastase enzyme; parameters: method as in doi:10.1517/13543776.3.8.1237; conditions: cited from earlier work
[1] = DPPH radical scavenging activity
Experimental: The scavenging activity of the stable 2,2-diphenyl-1-picrylhydrazyl (DPPH) free radical by RHE was assessed according to the method reported by Boly et al.[112].

Cytotoxicity MTT assay = format: cell-based; conditions: human, WI-38 normal lung fibroblast cells, WI38 cell line, read-out: cytotoxic effect IC50
Experimental: The cytotoxicity of RHE extract was evaluated against human normal lung fibroblasts cell line WI-38 using MTT (3-(4,5-dimethylthiazol-2-yl)2,5-diphenyl tetrazolium bromide) assay[116] as recently described.

[2] = biological target: T1, Porcine pancreatic elastase (Sus scrofa, UniProt P00772); experiment: Anti-elastase assay (EnzCheck, fluorimetric); format: biochemical
T1 construct: purchased Molecular Probes
Experimental: The elastase inhibitory activity was assessed fluorimetrically using the EnzCheck® elastase assay kit (Molecular Probes, Laiden, Netherlands). A 1 mg/mL stock solution of the substrate (DQ elastin) was prepared in deionized water. Porcine pancreatic elastase stock solution was prepared in deionized water at 100 U/mL and dilutions were made in Tris–HCL buffer. Pre-incubation of 50 µL of different dilutions of the extract (inhibitor) with 100 µL of the enzyme was done for 15 min followed by the addition of the substrate (50 µL). Controls were prepared with buffer instead of extract. Fluorescence intensity was continuously measured for 20 min in a fluorescence microplate reader equipped with standard fluorescein filters (λex 505 nm, λem 515 nm). Subtraction of background fluorescence was done in no-enzyme wells. 1,10-Phenathrolinewas used as a standard elastase inhibitor. The IC50 is the concentration of the extract required to inhibit 50% of elastase activity.
The percentage of elastase inhibition(%)=(1-S/C)×100 where S is the corrected fluorescence of the extract samples and C is the corrected fluorescence of the control.

collagenase = experiment: Anti-collagenase assay (fluorimetric, BODIPY-gelatin); format: biochemical
Experimental: The evaluation of collagenase inhibitory activity was performed fluorimetrically in a microplate reader. Briefly, the self-quenched BODIPY conjugate of gelatin (Type B) was used as a fluorogenic substrate to monitor the activity of collagenase (Biovision, CA, USA). Collagenase stock solution was prepared in 50 mM Tricine buffer at 0.8 U/mL and the substrate (BODIPY) was dissolved in Tricine buffer to 2 mM. One microliter of different concentrations of the extract (1, 10, 100, and 1000 µg/mL) was incubated with the 5 µL collagenase in buffer and 44 µL Tricine buffer for 15 min before adding the substrate. […] The reaction is initiated by mixing two µL of the substrate with the previous reaction mixture. Negative controls were prepared with the buffer. Fluorescence intensity was monitored (λex 490 nm, λem 520 nm, 515 nm cut-off) in a kinetic mode at 37 °C for 30–60 min.
The percentage of collagenase inhibition(%)=(1-S/C)×100 where S is the corrected fluorescence of the extract sample and C is the corrected fluorescence of the control.

T1 sequence (P00772 27-266): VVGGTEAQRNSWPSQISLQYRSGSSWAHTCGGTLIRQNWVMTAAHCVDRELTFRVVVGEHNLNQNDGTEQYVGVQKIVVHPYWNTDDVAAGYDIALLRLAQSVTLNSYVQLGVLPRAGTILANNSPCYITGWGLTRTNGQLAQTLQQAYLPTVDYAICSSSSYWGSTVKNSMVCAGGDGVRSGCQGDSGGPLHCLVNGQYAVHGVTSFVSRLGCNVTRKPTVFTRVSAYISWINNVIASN

SMILES: CC1=CC(=O)[C@@H]2C[C@H]1C2(C)C [Verbenone]
IC50 of elastase enzyme inhibition (elastase enzyme): picomolar range

DPPH (IC50, µg/mL) [1]: 6.1 ± 0.2 µg/mL and 6.11 ± 0.2 µg/mL
SMILES: Cc1c(C)c2c(c(C)c1O)CCC(C)(C(=O)O)O2 (centres unmarked) [Trolox]

SMILES: Nc1nc2c(ncn2COCCO)c(=O)[nH]1 [acyclovir]
IC50 (Cytotoxicity MTT assay): 48.6 ± 3.2 µg/mL (≈ 216 µM)

SMILES: c1cnc2c(c1)ccc1cccnc12 [1,10-Phenanthroline]
IC50 [2]: 142 µM
IC50 Collagenase (collagenase): 340.8 ± 17.3 µg/mL (≈ 1890 µM)
